BindingDB's records for patent US9328099 (Merck Sharp & Dohme, 2016)

Legend:
[1] = molecular target: Tyrosine-protein kinase JAK1 (Homo sapiens, UniProt P23458); assay: HTRF Biochemical Assay; details: 25 °C
[2] = molecular target: Tyrosine-protein kinase JAK2 (Homo sapiens, UniProt O60674); assay: HTRF Biochemical Assay; details: 25 °C
Sequence of Tyrosine-protein kinase JAK2 (O60674 whole entry): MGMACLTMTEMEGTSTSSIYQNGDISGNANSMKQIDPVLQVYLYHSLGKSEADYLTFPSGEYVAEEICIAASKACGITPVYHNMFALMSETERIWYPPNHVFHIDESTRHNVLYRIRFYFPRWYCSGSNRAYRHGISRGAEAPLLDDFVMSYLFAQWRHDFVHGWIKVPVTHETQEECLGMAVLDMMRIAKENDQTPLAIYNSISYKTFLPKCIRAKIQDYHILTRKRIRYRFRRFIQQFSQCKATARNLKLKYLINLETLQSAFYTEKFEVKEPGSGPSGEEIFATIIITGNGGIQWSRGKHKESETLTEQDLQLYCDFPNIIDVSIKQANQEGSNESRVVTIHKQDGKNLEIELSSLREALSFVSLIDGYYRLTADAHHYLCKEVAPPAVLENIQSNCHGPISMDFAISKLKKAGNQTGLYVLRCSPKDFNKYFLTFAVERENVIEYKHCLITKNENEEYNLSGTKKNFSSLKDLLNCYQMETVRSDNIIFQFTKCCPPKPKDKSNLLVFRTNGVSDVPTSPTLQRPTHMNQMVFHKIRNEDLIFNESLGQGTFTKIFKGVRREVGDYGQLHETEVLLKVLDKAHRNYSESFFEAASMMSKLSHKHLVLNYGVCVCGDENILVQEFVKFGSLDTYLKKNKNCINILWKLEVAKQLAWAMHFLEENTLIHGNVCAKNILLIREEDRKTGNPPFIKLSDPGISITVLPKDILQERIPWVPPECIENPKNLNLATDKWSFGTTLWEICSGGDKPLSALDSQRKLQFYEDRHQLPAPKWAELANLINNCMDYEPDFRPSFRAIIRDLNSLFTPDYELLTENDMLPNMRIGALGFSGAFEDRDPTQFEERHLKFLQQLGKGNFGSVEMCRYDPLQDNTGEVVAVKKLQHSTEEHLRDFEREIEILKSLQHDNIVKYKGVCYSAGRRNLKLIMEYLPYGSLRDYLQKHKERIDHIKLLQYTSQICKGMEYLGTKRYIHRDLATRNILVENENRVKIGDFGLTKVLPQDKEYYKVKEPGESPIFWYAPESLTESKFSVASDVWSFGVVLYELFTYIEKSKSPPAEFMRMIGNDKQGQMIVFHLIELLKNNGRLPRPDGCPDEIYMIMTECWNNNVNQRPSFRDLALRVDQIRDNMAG

Sequence of Tyrosine-protein kinase JAK1 (P23458 whole entry): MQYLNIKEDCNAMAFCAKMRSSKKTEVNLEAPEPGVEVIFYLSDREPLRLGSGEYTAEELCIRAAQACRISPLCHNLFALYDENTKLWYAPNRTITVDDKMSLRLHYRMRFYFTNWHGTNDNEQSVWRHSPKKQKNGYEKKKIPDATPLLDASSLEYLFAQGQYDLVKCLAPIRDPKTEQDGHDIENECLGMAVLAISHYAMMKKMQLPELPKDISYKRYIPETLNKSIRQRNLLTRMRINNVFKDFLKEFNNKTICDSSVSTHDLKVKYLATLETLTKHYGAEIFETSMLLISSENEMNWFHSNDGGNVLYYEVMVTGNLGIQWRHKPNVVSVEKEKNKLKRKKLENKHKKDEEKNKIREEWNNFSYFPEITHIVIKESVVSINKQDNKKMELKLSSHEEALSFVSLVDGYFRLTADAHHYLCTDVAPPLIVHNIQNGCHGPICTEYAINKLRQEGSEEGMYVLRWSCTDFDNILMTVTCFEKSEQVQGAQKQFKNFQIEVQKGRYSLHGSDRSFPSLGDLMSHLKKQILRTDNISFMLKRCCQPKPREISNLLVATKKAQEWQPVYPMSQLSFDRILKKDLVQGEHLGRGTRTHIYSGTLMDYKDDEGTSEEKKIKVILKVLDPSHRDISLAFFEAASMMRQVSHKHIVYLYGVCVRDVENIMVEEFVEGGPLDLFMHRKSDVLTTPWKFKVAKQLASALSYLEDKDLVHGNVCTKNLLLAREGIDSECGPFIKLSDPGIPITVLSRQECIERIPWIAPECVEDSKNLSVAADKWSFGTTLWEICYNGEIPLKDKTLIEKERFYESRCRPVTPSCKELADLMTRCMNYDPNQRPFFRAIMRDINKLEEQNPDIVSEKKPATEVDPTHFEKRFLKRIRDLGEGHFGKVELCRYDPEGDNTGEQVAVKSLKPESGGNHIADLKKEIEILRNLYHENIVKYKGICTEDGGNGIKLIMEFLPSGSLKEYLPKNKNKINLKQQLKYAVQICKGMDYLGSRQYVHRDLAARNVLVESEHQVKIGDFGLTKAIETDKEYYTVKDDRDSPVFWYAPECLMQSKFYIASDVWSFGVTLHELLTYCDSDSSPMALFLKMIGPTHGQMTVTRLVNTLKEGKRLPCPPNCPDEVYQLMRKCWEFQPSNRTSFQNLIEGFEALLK

Cc1cc(F)c(Nc2ccnc3c2C(=O)Nc2cc(CN4CC[C@@H](N)C4)ccc2N3)cc1O [US9328099, 29-A]
IC50 [1]: 1 nM | IC50 [2]: 40 nM
